This passage reports MIC and Ratio results from ChEMBL document CHEMBL4261593, “Synthesis and antibacterial activity of novel 3-O-arylalkylcarbamoyl-3-O-descladinosyl-9-O-(2-chlorobenzyl)oxime clarithromycin derivatives” (2018).

The MIC is the lowest concentration found to suppress growth. Read a high MIC as weaker potency.

Holding throughout (assay type): functional
One assay has as its system Pseudomonas aeruginosa. The experiment in a line: Antibacterial activity against penicillin-susceptible Pseudomonas aeruginosa ATCC 27853 after 24 hrs by broth dilution assay. The settings on record: ATCC 27853, 24 h. In general terms: Dilution methods test growth across graded concentrations, often in twofold steps.
For a further assay, the system named is Escherichia coli. The experiment in a line: Antibacterial activity against penicillin-susceptible Escherichia coli ATCC 25922 after 24 hrs by broth dilution assay. The conditions noted are these: ATCC 25922, 24 h.
Assay [1] concerns Streptococcus pyogenes. Put plainly: Antibacterial activity against erythromycin-resistant Streptococcus pyogenes 2 after 24 hrs by broth dilution assay. The settings on record: Streptococcus pyogenes, 2, 24 h.
For a further assay, the system named is Bacillus subtilis. The experiment in a line: Antibacterial activity against penicillin-susceptible Bacillus subtilis ATCC 9372 after 24 hrs by broth dilution assay. The settings on record: ATCC 9372, 24 h.
Assay [2] relates to Streptococcus pneumoniae. The experiment in a line: Potency index, ratio of CAM MIC to compound MIC for antibacterial activity against erythromycin-resistant Streptococcus pneumoniae A22072.
Assay [3] has as its system Staphylococcus aureus. Put plainly: Antibacterial activity against penicillin-resistant Staphylococcus aureus ATCC 31007 after 24 hrs by broth dilution assay. The settings on record: ATCC 31007, 24 h.
In assay [4] the test system is Staphylococcus aureus. Put plainly: Antibacterial activity against […] Staphylococcus aureus ATCC 29213 after 24 hrs by broth dilution assay. The conditions noted are these: ATCC 29213, 24 h.
The test system of assay [5] is Streptococcus pyogenes. The experiment in a line: Antibacterial activity against erythromycin-susceptible Streptococcus pyogenes 1 after 24 hrs by broth dilution assay. The settings on record: Streptococcus pyogenes, 1, 24 h.
The test system of assay [6] is Staphylococcus aureus. The experiment in a line: Antibacterial activity against erythromycin-susceptible Staphylococcus aureus ATCC 25923 after 24 hrs by broth dilution assay. The settings on record: ATCC 25923, 24 h.
Assay [7] relates to Streptococcus pneumoniae. Put plainly: Antibacterial activity against erythromycin-resistant Streptococcus pneumoniae B1 expressing ermB gene after 24 hrs by broth dilution assay. The settings on record: B1, 24 h.
In assay [8] the test system is Streptococcus pneumoniae. The experiment in a line: Antibacterial activity against erythromycin-resistant Streptococcus pneumoniae AB11 expressing ermB and mefA genes after 24 hrs by broth dilution assay. The settings on record: AB11, 24 h.
The test system of assay [9] is Streptococcus pneumoniae. The experiment in a line: Potency index, ratio of AZM MIC to compound MIC for antibacterial activity against erythromycin-resistant Streptococcus pneumoniae A22072.
Assay [10] has as its system Streptococcus pneumoniae. Put plainly: Antibacterial activity against erythromycin-resistant Streptococcus pneumoniae A22072 expressing mefA gene after 24 hrs by broth dilution assay. The conditions noted are these: A22072, 24 h.
The subject of assay [11] is Streptococcus pyogenes. The experiment in a line: Potency index, ratio of CAM MIC to compound MIC for antibacterial activity against erythromycin-resistant Streptococcus pyogenes 2.
In assay [12] the test system is Staphylococcus aureus. The experiment in a line: Potency index, ratio of AZM MIC to compound MIC for antibacterial activity against penicillin-resistant Staphylococcus aureus ATCC 31007.
For assay [13], the system named is Streptococcus pyogenes. The experiment in a line: Potency index, ratio of AZM MIC to compound MIC for antibacterial activity against erythromycin-resistant Streptococcus pyogenes 2.
The subject of assay [14] is Staphylococcus aureus. Put plainly: Potency index, ratio of CAM MIC to compound MIC for antibacterial activity against penicillin-resistant Staphylococcus aureus ATCC 31007.

≈ marks a conversion by molar mass, not a printed value.

As to `CC[C@H]1OC(=O)[C@H](C)[C@@H](OC(=O)NC2CC2)[C@H](C)[C@@H](O[C@@H]2O[C@H](C)C[C@H](N(C)C)[C@H]2O)[C@](C)(OC)C[C@@H](C)/C(=N/OCc2ccccc2Cl)[C@H](C)[C@@H](O)[C@]1(C)O`, the MIC worked out at 128 µg/mL (≈ 158 µM) in the assay with Pseudomonas aeruginosa; 128 µg/mL (≈ 158 µM) in the assay with Escherichia coli; 16 µg/mL (≈ 19.7 µM) with Streptococcus pyogenes [1]; 4 µg/mL (≈ 4.92 µM) against Bacillus subtilis; 16 µg/mL (≈ 19.7 µM) against Staphylococcus aureus [3]; 128 µg/mL (≈ 158 µM) against Staphylococcus aureus [4]. The MIC against Streptococcus pyogenes [5] is 1 µg/mL (≈ 1.23 µM); in the assay on Staphylococcus aureus [6], 8 µg/mL (≈ 9.85 µM); against Streptococcus pneumoniae [7] it was 128 µg/mL (≈ 158 µM); against Streptococcus pneumoniae [8], 128 µg/mL (≈ 158 µM); with Streptococcus pneumoniae [10], 0.125 µg/mL (≈ 0.154 µM). Moreover, the Ratio is 16 with Streptococcus pneumoniae [2] and 32 in the assay on Streptococcus pneumoniae [9].
In the case of `CC[C@H]1OC(=O)[C@H](C)[C@@H](OC(=O)NCc2cccc(F)c2)[C@H](C)[C@@H](O[C@@H]2O[C@H](C)C[C@H](N(C)C)[C@H]2O)[C@](C)(OC)C[C@@H](C)/C(=N/OCc2ccccc2Cl)[C@H](C)[C@@H](O)[C@]1(C)O`, the MIC against Pseudomonas aeruginosa is 128 µg/mL (≈ 145 µM); in the assay with Escherichia coli, 128 µg/mL (≈ 145 µM); with Streptococcus pyogenes [1], 8 µg/mL (≈ 9.09 µM); in the assay with Bacillus subtilis, 2 µg/mL (≈ 2.27 µM); against Staphylococcus aureus [3] it was 4 µg/mL (≈ 4.54 µM); in the assay on Staphylococcus aureus [4] it was 128 µg/mL (≈ 145 µM). For the same compound, the MIC in the assay with Streptococcus pyogenes [5] turned out to be 1 µg/mL (≈ 1.14 µM); in the assay with Staphylococcus aureus [6] it was 4 µg/mL (≈ 4.54 µM); with Streptococcus pneumoniae [7] it was 128 µg/mL (≈ 145 µM); in the assay with Streptococcus pneumoniae [8] it was 128 µg/mL (≈ 145 µM); in the assay with Streptococcus pneumoniae [10] it was 0.5 µg/mL (≈ 0.568 µM). The Ratio in the assay with Streptococcus pyogenes [11] is 32; with Staphylococcus aureus [12], 64; in the assay with Streptococcus pyogenes [13], 32; in the assay on Staphylococcus aureus [14], 64.
For `CCCNC(=O)O[C@H]1[C@H](C)[C@@H](O[C@@H]2O[C@H](C)C[C@H](N(C)C)[C@H]2O)[C@](C)(OC)C[C@@H](C)/C(=N/OCc2ccccc2Cl)[C@H](C)[C@@H](O)[C@](C)(O)[C@@H](CC)OC(=O)[C@@H]1C`, the MIC was found to be 128 µg/mL (≈ 157 µM) in the assay with Pseudomonas aeruginosa; 128 µg/mL (≈ 157 µM) against Escherichia coli; 8 µg/mL (≈ 9.82 µM) in the assay on Streptococcus pyogenes [1]; 2 µg/mL (≈ 2.46 µM) in the assay on Bacillus subtilis; 16 µg/mL (≈ 19.6 µM) with Staphylococcus aureus [3]; 128 µg/mL (≈ 157 µM) against Staphylococcus aureus [4]. In addition, the MIC against Streptococcus pyogenes [5] was determined as 1 µg/mL (≈ 1.23 µM); against Staphylococcus aureus [6] it was 8 µg/mL (≈ 9.82 µM); with Streptococcus pneumoniae [7] it was 128 µg/mL (≈ 157 µM); against Streptococcus pneumoniae [8], 128 µg/mL (≈ 157 µM); with Streptococcus pneumoniae [10], 0.125 µg/mL (≈ 0.153 µM). Moreover, the Ratio with Streptococcus pyogenes [11] is on record as 32; in the assay on Streptococcus pneumoniae [2] it was 16; in the assay with Streptococcus pyogenes [13], 32; with Streptococcus pneumoniae [9] it was 32.
